Where “and” joins values, the source holds several entries; their conditions need not be identical. Identical values can stand only once.
What was measured:
HL-60 = experiment: Cell viability assay (Cell Titer-Glo); format: cell-based; settings: CD33 expressing cells; 72 h or 6 days incubation
Experimental: Dose response curves were generated using SoftMax Pro software. IC50 values were determined from four-parameter curve fitting.
CD33 expressing cells HL-60 were passed at a density of 5,000 cells per well and treated with PBRM-polymer-drug conjugate on the same day. After 72 h or 6 days incubation, the cells were analyzed using the same procedure described above.

MCF7 = experiment: Cell viability assay (Cell Titer-Glo); format: cell-based; settings: 72 h incubation; HER2 low expressing cells; AF-HPA as toxin equivalents
Experimental: (§1) PBRM-polymer-drug conjugates were evaluated for their antiproliferation properties in tumor cell lines in vitro using Cell Titer-Glo (Promega Corp). Cells were plated in black walled 96-well plate and allowed to adhere overnight at 37° C. in a humidified atmosphere of 5% CO2. SKBR3, BT474, NCI-N87 cells (HER2 expressing cells), MCF7 cells (HER2 low expressing levels cells) and JIMT1 cells (HER2 medium expression level cells) were plated at a density of 5,000 cells per well. The next day the medium was replaced with 50 μL fresh medium and 50 μL of 2× stocks of PBRM-polymer-drug conjugate, drug polymer conjugate or drug were added to appropriate wells, mixed and incubated for 72 h. Cell Titer-Glo reagent was added to the wells at room temperature and the luminescent signal was measured after 10 min using a SpectraMax M5 plate reader (Molecular Devices). Dose response curves were generated using SoftMax Pro software. IC50 values were determined from four-parameter curve fitting.

BT474 [1] = experiment: Cell viability assay (Cell Titer-Glo); format: cell-based, human; settings: 72 h incubation; AF-HPA as toxin equivalents
Experimental: as §1

SKBR3 = experiment: Cell viability assay (Cell Titer-Glo); format: cell-based; settings: 72 h incubation; AF-HPA as toxin equivalents
Experimental: as §1

JIMT1 = experiment: Cell viability assay (Cell Titer-Glo); format: cell-based; settings: 72 h incubation; HER2 medium expression level cells; AF-HPA as toxin equivalents
Experimental: as §1

N87 = experiment: Cell viability assay (Cell Titer-Glo); format: cell-based; settings: 72 h incubation; AF-HPA as toxin equivalents
Experimental: as §1

hErbB2 = hErbB2 (Homo sapiens, UniProt P04626); experiment: Ligand binding studies by BIAcore surface plasmon resonance (SPR); settings: 25° C.; immobilized hErbB2; BioRad ProteOn XPR36
Experimental: The kinetic binding of the PBRM-polymer-drug conjugate to an immobilized receptor is determined by BIAcore SPR. The binding constants for the PBRM in the PBRM-polymer-drug conjugate and PBRM alone can be determined using standard BIAcore procedures.
The kinetic binding of the PBRM-polymer-drug conjugate to an immobilized receptor was determined by BIAcore SPR.

JIMT-1 cells = experiment: Tumor growth response, JIMT-1 xenograft; format: in vivo, mice; settings: for tumor volume response (in words), FIG. 4A: Example 14 at 2, 0.67 and 0.3 mg/kg, trastuzumab 20 mg/kg, Kadcyla 20 mg/kg
Experimental: (§2) Female CB-17 SCID mice were inoculated subcutaneously with BT474 tumor fragments (n=10 for each group) or JIMT-1 cells (n=10 for each group) or NCI-N87 cells (n=10 for each group). […] Test compounds or vehicle were dosed IV as a single dose on day 1. Tumor size was measured at the times indicated in FIGS. 1 to 6 using digital calipers. Tumor volume was calculated and was used to determine the delay in tumor growth. Mice were sacrificed when tumors reached a size of 800 to 1500 mm^3. Tumor volumes are reported as the mean±SEM (“standard error of mean”) for each group.

NCI-H1581 = experiment: Cytotoxicity assay (CellTiter-Glo); format: cell-based; settings: HER2 molecules per cell 13,000; Her2 expression 1+; 72 hours or 6 days
Experimental: (§3) NCI-H1581 (non-small cell lung carcinoma medium expressing cell line, not amplified, ATCC, Cat.# CRL-5878) cells were cultured in DMEM:F12 medium (ATCC, Cat#30-2006). […] CALU3 (human lung adenocarcinoma cell line, ATCC, Cat# HTB-55) was cultured in ATCC-formulated Eagle's Minimum Essential Medium. […] NCI-H2122 (human lung adenocarcinoma cell line, not amplified, ATCC, Cat# CRL-5985) was cultured in RPMI-1640 Medium, (ATCC, Cat#30-2001).
(§4) For the cytotoxicity assay, cells were seeded at a density of 3000 cells per well in 96 well plates and allowed to attach during overnight incubation at 37° C. in the presence of 5% CO2.

HCC38 = experiment: Cytotoxicity assay (CellTiter-Glo); format: cell-based, human; settings: HER2 molecules per cell 36,000; Her2 expression 2+; 72 hours or 6 days
Experimental: (§5) ZR75-1 (human breast cancer cell line, not amplified, ATCC, Cat.# CRL-1500), was cultured in RPMI-1640 Medium. HCC1187 (human breast cancer cell line, not amplified, ATCC, Cat.# CRL-2322), was cultured in RPMI-1640 Medium. HCC38 (human breast cancer cell line, not amplified, ATCC, Cat.# CRL-2314), was cultured in RPMI-1640 Medium. T47D (human breast cancer cell line, not amplified, ATCC, Cat.# HTB-133), was cultured in RPMI-1640 Medium. MDA-MB-231 (human breast cancer cell line, not amplified, ATCC, Cat.# HTB-26), was cultured in DMEM Medium.
as §4

NCI-N87 = experiment: Cytotoxicity assay (CellTiter-Glo); format: cell-based; settings: HER2 molecules per cell 700,000; Her2 expression 3+; 72 hours or 6 days
Experimental: as §4

NCI-H2170 = experiment: Cytotoxicity assay (CellTiter-Glo); format: cell-based; settings: HER2 molecules per cell 660,000; Her2 expression 3+; 72 hours or 6 days
Experimental: as §3, §4

CALU3 = experiment: Cytotoxicity assay (CellTiter-Glo); format: cell-based, human; settings: HER2 molecules per cell 330,000; Her2 expression 3+; 72 hours or 6 days
Experimental: as §3, §4

MDA-MB-361 = experiment: Cytotoxicity assay (CellTiter-Glo); format: cell-based, human; settings: HER2 molecules per cell 135,000; Her2 expression 2+; 72 hours or 6 days
Experimental: (§6) MDA-MB-175-VII (human breast cancer cell line, not amplified, ATCC, Cat.# HTB-25), was cultured in Leibovitz's L-15 Medium with 20% FBS. CAMA-1 (human breast cancer cell line, not amplified, ATCC, Cat.# HTB-21), was cultured in 90% ATCC-formulated Eagle's Minimum Essential Medium.
as §4

NCI-H460 = experiment: Cytotoxicity assay (CellTiter-Glo); format: cell-based, human; settings: HER2 molecules per cell 4,000; Her2 expression 1+; 72 hours or 6 days
Experimental: (§7) A549 (human lung carcinoma cell line, not amplified, ATCC, Cat# CCL-185) was cultured in F12K Medium. […] NCI-H460 (human lung carcinoma cell line, not amplified, ATCC, Cat.# HTB-177) was cultured in RPMI-1640 Medium, (ATCC, Cat.#30-2001). SHP-77 (human small cell lung cancer cell line, not amplified, ATCC, Cat.# CRL-2195) was cultured in RPMI-1640 Medium, (ATCC, Cat#30-2001).
as §4

SKOV3 = experiment: Cytotoxicity assay (CellTiter-Glo); format: cell-based, human; settings: HER2 molecules per cell 220,000; Her2 expression 3+; 72 hours or 6 days
Experimental: (§8) OVCAR3 (ovarian adenocarcinoma, not amplified, ATCC, Cat# HTB-161) was cultured in RPMI medium with 20% FBS. […] MKN-45 III (human gastric adenocarcinoma cell line, not amplified, DSMZ, Braunschweig, Germany, Cat.# ACC409) was cultured in RPMI-1640 Medium, (ATCC, Cat#30-2001). SKOV3 (human ovary adenocarcinoma cell line ATCC, Cat.# HTB-77), was cultured in McCoy's 5a Medium.
as §4

A549 = experiment: Cytotoxicity assay (CellTiter-Glo); format: cell-based, human; settings: HER2 molecules per cell 6,000; Her2 expression 1+; 72 hours or 6 days
Experimental: as §7, §4

NCI-H522 = experiment: Cytotoxicity assay (CellTiter-Glo); format: cell-based; settings: HER2 molecules per cell 25,000; Her2 expression 1+; 72 hours or 6 days
Experimental: as §3, §4

MDA-MB-231 = experiment: Cytotoxicity assay (CellTiter-Glo); format: cell-based, human; settings: HER2 molecules per cell 5400; Her2 expression 1+; 72 hours or 6 days
Experimental: as §5, §4

SHP-77 = experiment: Cytotoxicity assay (CellTiter-Glo); format: cell-based, human; settings: HER2 molecules per cell 0; 72 hours or 6 days
Experimental: as §7, §4

CAMA-1 = experiment: Cytotoxicity assay (CellTiter-Glo); format: cell-based, human; settings: HER2 molecules per cell 50,000; Her2 expression 1+; 72 hours or 6 days
Experimental: as §6, §4

NCI-H2122 = experiment: Cytotoxicity assay (CellTiter-Glo); format: cell-based, human; settings: HER2 molecules per cell 12,000; Her2 expression 1+; 72 hours or 6 days
Experimental: as §3, §4

MDA-MB-453 = experiment: Cytotoxicity assay (CellTiter-Glo); format: cell-based; settings: HER2 molecules per cell 125,000; Her2 expression 2+; 72 hours or 6 days
TOV21G = experiment: Cytotoxicity assay (CellTiter-Glo); format: cell-based, human; settings: HER2 molecules per cell 12,000; Her2 expression 1+; 72 hours or 6 days
Experimental: as §8, §4

ZR75-1 = experiment: Cytotoxicity assay (CellTiter-Glo); format: cell-based, human; settings: HER2 molecules per cell 40,000; Her2 expression 1+; 72 hours or 6 days
Experimental: as §5, §4

MDA-MB-175VII = experiment: Cytotoxicity assay (CellTiter-Glo); format: cell-based, human; settings: read-out: IC50 MDA-MB-175VII; HER2 molecules per cell 51,000; Her2 expression 1+; 72 hours or 6 days
Experimental: as §6, §4

OVCAR3 = experiment: Cytotoxicity assay (CellTiter-Glo); format: cell-based; settings: HER2 molecules per cell 7,200; Her2 expression 1+; 72 hours or 6 days
Experimental: as §8, §4

MKN45 = experiment: Cytotoxicity assay (CellTiter-Glo); format: cell-based, human; settings: HER2 molecules per cell 16,000; Her2 expression 1+; 72 hours or 6 days
Experimental: as §8, §4

BT474 [2] = experiment: Cytotoxicity assay (CellTiter-Glo); format: cell-based, human; settings: HER2 molecules per cell 860,000; Her2 expression 3+; 72 hours or 6 days
Experimental: as §8, §4

JIMT-1 = settings: read-out: IC50 JIMT-1; HER2 molecules per cell 80,000; Her2 expression 2+; 72 hours or 6 days
HCC1187 = experiment: Cytotoxicity assay (CellTiter-Glo); format: cell-based, human; settings: HER2 molecules per cell 38,000; Her2 expression 2+; 72 hours or 6 days
Experimental: as §5, §4

KATOIII = experiment: Cytotoxicity assay (CellTiter-Glo); format: cell-based, human; settings: HER2 molecules per cell 19,000; Her2 expression 1+; 72 hours or 6 days
Experimental: as §7, §4

SNU5 = experiment: Cytotoxicity assay (CellTiter-Glo); format: cell-based; settings: HER2 molecules per cell 22,000; Her2 expression 1+; 72 hours or 6 days
Experimental: as §7, §4

T47D = experiment: Cytotoxicity assay (CellTiter-Glo); format: cell-based, human; settings: HER2 molecules per cell 20,000; Her2 expression 1+; 72 hours or 6 days
Experimental: as §5, §4

HL-60 cells = experiment: Tumor growth response, HL-60 xenograft; format: in vivo, mice; settings: single IV dose day 1; 20 mg/kg
Experimental: Female NCr nu/nu mice were inoculated subcutaneously with HL-60 cells (n=10 for each group). Test compounds or vehicle were dosed IV as a single dose on day 1. Tumor size was measured at the times indicated in FIGS. 1 to 6 using digital calipers. Tumor volume was calculated and was used to determine the delay in tumor growth. Mice were sacrificed when tumors reached a size of 800 to 1500 mm^3. Tumor volumes are reported as the mean±SEM (“standard error of mean”) for each group.
Female NCr nu/nu mice were inoculated subcutaneously with HL-60 cells (n=10 for each group). Test compounds or vehicle were dosed IV as a single dose on day 1. Tumor size was measured at the times indicated in FIG. 3 using digital calipers. Tumor volume was calculated and was used to determine the delay in tumor growth. Mice were sacrificed when tumors reached a size of 2000 mm^3. Tumor volumes are reported as the mean±SEM for each group.

NCI-N87 cells = experiment: Tumor growth response, NCI-N87 xenograft; format: in vivo, mice
Experimental: as §2

Rituximab-((EG2-MI (3%)-(10 kDa PHF-BA (30%)-(AF-HPA-Ala (8%)) [Example 9]
IC50 (HL-60): 6.74 nM

Trastuzumab-((EG2-MI (2%)-(10 kDa PHF-BA (28%)-(AF-HPA-Ala (9%) [Example 18A]
IC50 (MCF7): 9.6 nM | IC50 (BT474 [1]): 0.04 nM | IC50 (SKBR3): 0.02 nM | IC50 (JIMT1): 0.16 nM | IC50 (N87): 0.06 nM | ka (association or affinity rate constant) (hErbB2): 4.67 ± 0.7 × 10^5 M^−1s^−1 | kd (dissociation rate constant) (hErbB2): 2.07 ± 0.2 × 10^−5 s^−1

Trastuzumab-((EG2-MI (2%)-(10 kDa PHF-BA (28%)-(AF-HPA-Ala (9%) [Example 14]
IC50 (MCF7): 28.9 nM | IC50 (BT474 [1]): 0.07 nM | IC50 (SKBR3): 0.02 nM | IC50 (JIMT1): 0.13 nM | regressions, FIG. 4A (JIMT-1 cells; 2.0 mg/kg single IV dose): 100% | tumor free survival, FIG. 4A (JIMT-1 cells; 2.0 mg/kg single IV dose): 100% | tumor volume response (in words), FIG. 4A (JIMT-1 cells; single IV dose day 1): reduction of tumor volume | IC50 (N87): 0.11 nM | ka (association or affinity rate constant) (hErbB2): 3.91 ± 0.3 × 10^5 M^−1s^−1 | kd (dissociation rate constant) (hErbB2): 2.56 ± 0.1 × 10^−5 s^−1

ado-trastuzumab emtansine [Kadcyla]
IC50 (MCF7): 38.6 nM | IC50 (NCI-H1581): ~100 nM | IC50 (HCC38): > 100 nM | IC50 (NCI-N87): 0.3 nM | IC50 (NCI-H2170): 0.4 nM | IC50 (BT474 [1]): 2.4 nM | IC50 (CALU3): > 100 nM | IC50 (MDA-MB-361): 0.27 nM and 0.33 nM | IC50 (NCI-H460): 68 nM | IC50 (SKOV3): 5.6 nM | IC50 (SKBR3): 0.23 nM | IC50 (A549): > 100 nM | IC50 (JIMT1): 18 nM | IC50 (NCI-H522): ~100 nM | tumor volume response (in words), FIG. 4A (JIMT-1 cells; single IV dose day 1): increase of tumor volume | tumor volume response (in words), FIG. 2 (JIMT-1 cells; single IV dose day 1, conjugates […], trastuzumab 10 mg/kg, Kadcyla 10 mg/kg): increase of tumor volume | IC50 (MDA-MB-231): 27 nM | IC50 (SHP-77): > 100 nM | IC50 (CAMA-1): 7.8 nM | IC50 (NCI-H2122): 19 nM | IC50 (N87): 0.09 nM | IC50 (MDA-MB-453): ~100 nM | ka (association or affinity rate constant) (hErbB2): 4.61 ± 0.2 × 10^5 M^−1s^−1 | kd (dissociation rate constant) (hErbB2): 3.17 ± 0.9 × 10^−5 s^−1 | IC50 (TOV21G): > 100 nM | IC50 (ZR75-1): > 100 nM | IC50 (MDA-MB-175VII): 1.2 nM | IC50 (OVCAR3): ~85 nM | IC50 (MKN45): > 100 nM | IC50 (BT474 [2]): 1.3 nM | IC50 (JIMT-1): 17.5 nM | IC50 (HCC1187): 30 nM | IC50 (KATOIII): > 100 nM | IC50 (SNU5): ~100 nM | IC50 (T47D): 82.3 nM

lintuzumab
tumor volume response (in words), FIG. 3 (HL-60 cells): increase of tumor volume

Trastuzumab-((EG2-MI (2%)-(10 kDa PHF-BA (28%)-(AF-HPA-Ala (9%) [Example 15]
IC50 (MCF7): 23.5 nM | IC50 (BT474 [1]): 0.05 nM | IC50 (SKBR3): 0.01 nM | IC50 (JIMT1): 0.12 nM | IC50 (N87): 0.11 nM | complete regression out of 10 animals, FIG. 5 (NCI-N87 cells; 1 mg/kg single IV dose): 1 | partial regressions out of 10 animals, FIG. 5 (NCI-N87 cells; 1 mg/kg single IV dose): 7 | complete responses, FIG. 5 (NCI-N87 cells; 3 mg/kg single IV dose): 100 | tumor response (in words), FIG. 5 (NCI-N87 cells; 3 mg/kg single IV dose): complete regression of tumor volume

Trastuzumab-((EG2-MI (2.5%)-(10 kDa PHF-BA (28%)-(AF-HPA-Ala (8.4%) [Example 10]
regressions, FIG. 4B (JIMT-1 cells; 2.0 mg/kg single IV dose): 100% | tumor free survival at the end of the study, FIG. 4B (JIMT-1 cells; 2.0 mg/kg single IV dose): all of which remained tumor free survival | tumor volume response (in words), FIG. 4B (JIMT-1 cells; 2 mg/kg single dose or […] weekly for 3 weeks, IV): reduction of tumor volume

Reference: patent US9808528B2, “Protein-polymer-drug conjugates and methods of using same” (priority 2014, dated 2017)
